Data published in patent publication US11028090B2 (Dong Wha Pharm. Co., Ltd., priority 2017, dated 2021).
Structures can show the parent of a compound that is named as a salt. Where two headings read alike, the source gives them in different places.

Key:
[1] = biological target: BRD4 (BD1+BD2) bromodomain (Homo sapiens (Human), UniProt O60885); assay: BRD4 binding inhibition (AlphaScreen, GST-BRD4 vs tetraacetylated histone H4 peptide)
Procedure, shortened: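 AlphaScreen read after 30 min dark incubation at room temperature with glutathione acceptor/streptavidin donor beads (10 μg/ml each). The beads were added to compound plus 100 nM biotin-H4 (K5,8,12,16-acetyl) peptide and 100 nM GST-BRD4 BD1+BD2 in pH 7.4 HEPES/Tween/BSA/DTT buffer.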

[2] = system: thymus cancer cells (Ty-82 cells); assay: Cytotoxicity to thymus cancer cells (Ty-82 cells), WST-1; conditions: Homo sapiens, TY82, 72 h
Experimental: The following experiment was performed to evaluate the cytotoxicity of [1,2,4]triazolo[4,3-a]quinoxaline derivative according to the present invention to thymus cancer cells (Ty-82 cells).
First, thymus cancer cells (Ty-82 cells) were distributed in a 96 well plate at the density of 2.5×10^4 cells/well. 24 hours later, the plated cells were treated with the compounds of the present invention dissolved in DMSO at the different concentrations ranging from 0.01 μM to 10 μM. 72 hours later, the activities of the compounds were determined using WST-1 reagent.

[3] = system: acute myelogenous leukemia cells (MV-4-11 cells); assay: Cytotoxicity to acute myelogenous leukemia cells (MV-4-11 cells), CCK-8
[4] = GST-BRD4 (BD1+BD2) / biotinylated acetyl-histone H4 (Lys5,8,12,16) peptide, read-out: IC50, BRD4 binding inhibition
[5] = GST-BRD4 (BD1+BD2) vs biotinylated acetyl-histone H4 peptide, AlphaScreen, read-out: BRD4 IC50
[6] = read-out: Ty-82 Cytotoxicity IC50
[7] = Homo sapiens, MV4-11, 72 h, read-out: IC50, cytotoxicity against acute myelogenous leukemia cells
[8] = Homo sapiens, MV4-11, 72 h, read-out: MV-4-11 Cytotoxicity IC50

| IC50 [1, 4] [nM] | IC50 [1, 5] [nM] | Molecule | IC50 [2, 6] [nM] | IC50 ([2]; read-out: IC50, cytotoxicity against thymus cancer cells) [nM] | IC50 [3, 7] [nM] | IC50 [3, 8] [nM] | IC50 ([3]; read-out: IC50, cytotoxicity against acute myelogenous leukemia cells, MV-4-11 cells, 72 hours, CCK-8) [nM] | IC50 ([3]; read-out: MV-4-11 Cytotoxicity IC50, MV-4-11 cells, 72 hours, CCK-8) [nM] |
| --- | --- | --- | --- | --- | --- | --- | --- | --- |
| ≤ 50 | 23 | Cc1nnc2c(NCCCCNC(=O)OC(C)(C)C)nc3cc(NC(=O)C(C)C)ccc3n12 [Example 246, [4-(7-isobutyramido-1-methyl-[1,2,4]triazolo[4,3-a]quinoxaline-4-ylamino)-butyl]-carbamic acid-tert-butylester] | 490 | ≤ 500 |  |  |  |  |
| ≤ 50 | 36 | COc1cc2nc(NCCCCNC(=O)c3ccccc3)c3nnc(C)n3c2cc1OC [Example 95, N-[4-(7,8-dimethoxy-1-methyl-[1,2,4]triazolo[4,3-a]quinoxaline-4-ylamino)-butyl]-benzamide] |  |  |  | 590 |  |  |
|  | 58 | COc1cc2nc(NCCCCNC(=O)OCC(C)C)c3nnc(C(C)C)n3c2cc1OC [Example 602, [4-(1-isopropyl-7,8-dimethoxy-[1,2,4]triazolo[4,3-a]quinoxaline-4-ylamino)-butyl]-carbamic acid isobutylester] |  |  |  | 290 |  |  |
| ≤ 50 | 43 | Cc1nnc2c(NCCCCNC(=O)CC(C)(C)C)nc3ccc(OC(F)(F)F)cc3n12 [Example 266, 3,3-dimethyl-N-[4-(1-methyl-8-trifluoromethoxy-[1,2,4]triazolo[4,3-a]quinoxaline-4-ylamino)-butyl]-butyramide] |  |  |  | 540 |  |  |
| ≤ 50 | 17 | COc1cc2nc(NCCCCNC(=O)Cc3ccccc3)c3nnc(C)n3c2cc1OC [Example 86, N-[4-(7,8-dimethoxy-1-methyl-[1,2,4]triazolo[4,3-a]quinoxaline-4-ylamino)-butyl]-2-phenyl-acetamide] |  |  | ≤ 200 | 60 |  |  |
| ≤ 50 | 19 | COCCOc1ccc2c(c1)nc(NCCCCNC(=O)c1ccccc1Cl)c1nnc(C)n12 [Example 411, 2-chloro-N-{4-[7-(2-methoxy-ethoxy)-1-methyl-[1,2,4]triazolo[4,3-a]quinoxaline-4-ylamino]-butyl}-benzamide] |  |  | ≤ 200 | 150 |  |  |
| ≤ 50 | 18 | COc1cc2nc(NCCCCNC(=O)C=C(C)C)c3nnc(C)n3c2cc1OC [Example 71, 3-methyl-butene-2-oic acid-[4-(7,8-dimethoxy-1-methyl-[1,2,4]triazolo[4,3-a]quinoxaline-4-ylamino)-butyl]-amide] |  |  | ≤ 200 | 110 |  |  |
| ≤ 10 | 8 | Cc1nnc2c(NCCCCNC(=O)[C@@H](O)C(C)C)nc3cc(OCCN4CCOCC4)ccc3n12 [Example 435, 2-(S)-hydroxy-N-{4-[7-(2-morpholine-4-yl-ethoxy)-1-methyl-[1,2,4]triazolo[4,3-a]quinoxaline-4-ylamino]-butyl}-3-methyl-butyramide] |  |  |  | 110 |  |  |
| ≤ 10 | 7 | CCCNc1cc2c(cc1OC)nc(NCCCCNC(=O)CC(C)C)c1nnc(C)n12 [Example 559, N-[4-(7-methoxy-1-methyl-8-propylamino-[1,2,4]triazolo[4,3-a]quinoxaline-4-ylamino)-butyl]-3-methyl-butyramide] |  |  | ≤ 200 | 141 |  |  |

Continued, molecule first:

| Molecule | IC50 [1, 4] [nM] | IC50 [1, 5] [nM] | IC50 [2, 6] [nM] | IC50 ([2]; read-out: IC50, cytotoxicity against thymus cancer cells) [nM] | IC50 [3, 7] [nM] | IC50 [3, 8] [nM] | IC50 ([3]; read-out: IC50, cytotoxicity against acute myelogenous leukemia cells, MV-4-11 cells, 72 hours, CCK-8) [nM] | IC50 ([3]; read-out: MV-4-11 Cytotoxicity IC50, MV-4-11 cells, 72 hours, CCK-8) [nM] |
| --- | --- | --- | --- | --- | --- | --- | --- | --- |
| Cc1nnc2c(NCCCCNC(=O)OC(C)(C)C)nc3cc(C(=O)NCc4ccccc4)ccc3n12 [Example 210, [4-(7-benzylcarbamoyl-1-methyl-[1,2,4]triazolo[4,3-a]quinoxaline-4-ylamino)-butyl]-carbamic acid-tert-butylester] | ≤ 50 | 18 | 760 |  |  |  |  |  |
| Cc1nnc2c(NCCCCNC(=O)c3ccccc3)nc3cc(NC(=O)C(C)C)ccc3n12 [Example 248, N-[4-(7-isobutyramido-1-methyl-[1,2,4]triazolo[4,3-a]quinoxaline-4-ylamino)-butyl]-benzamide] |  | 54 | 510 |  |  |  |  |  |
| Cc1nnc2c(NCCCCNC(=O)CC(C)(C)C)nc3ccccc3n12 [Example 8, 3,3-dimethyl-N-[4-(1-methyl-[1,2,4]triazolo[4,3-a]quinoxaline-4-ylamino)-butyl]-butyramide] | ≤ 50 | 24 | 860 |  |  |  |  |  |
| COc1ccc2nc(NCCCCNC(=O)c3ccccc3)c3nnc(C)n3c2c1 [Example 127, N-[4-(8-methoxy-1-methyl-[1,2,4]triazolo[4,3-a]quinoxaline-4-ylamino)-butyl]-benzamide] | ≤ 50 | 46 | 620 |  |  |  |  |  |
| COC(=O)c1ccc2c(c1)nc(NCCCCNC(=O)OC(C)(C)C)c1nnc(C)n12 [Example 197, 4-(4-tert-butoxycarbamoylamino-butylamino)-1-methyl-[1,2,4]triazolo[4,3-a]quinoxaline-7-carboxylic acid methylester] | ≤ 50 | 28 | 650 |  |  |  |  |  |
| COc1ccc2c(c1)nc(NCCCCNC(=O)Cc1ccccc1)c1nnc(C)n12 [Example 329, N-[4-(7-methoxy-1-methyl-[1,2,4]triazolo[4,3-a]quinoxaline-4-ylamino)-butyl]-2-phenyl-acetamide] | ≤ 50 | 35 |  |  | ≤ 200 | 19 |  |  |
| Cc1nnc2c(NCCCCNC(=O)[C@@H](N)C(C)C)nc3cc(N4CCOCC4)ccc3n12 [Example 503, 2-(S)-amino-3-methyl-N-[4-(1-methyl-7-morpholine-4-yl-[1,2,4]triazolo[4,3-a]quinoxaline-4-ylamino)-butyl]-butyramide hydrochloride] |  | 63 |  |  |  | 575 |  |  |
| COCCOc1ccc2c(c1)nc(NCCCCNC(=O)[C@H](NC(=O)[C@@H](O)C(C)C)C(C)C)c1nnc(C)n12 (stereo in doubt) [Example 403, 2-(S,R)-hydroxy-N-(1-{4-[7-(2-methoxy-ethoxy)-1-methyl-[1,2,4]triazolo[4,3-a]quinoxaline-4-ylamino]-butylcarbamoyl}-2-methyl-propyl)-3-methyl-butyramide] | ≤ 10 | 10 |  |  |  | 610 |  |  |
| COCCOc1ccc2c(c1)nc(NCCCCNC(=O)[C@@H](NC(=O)OCC(C)C)C(C)C)c1nnc(C)n12 [Example 398, (S)-(1-{4-[7-(2-methoxy-ethoxy)-1-methyl-[1,2,4]triazolo[4,3-a]quinoxaline-4-ylamino]-butylcarbamoyl}-2-methyl-propyl)-carbamic acid isobutylester] | ≤ 10 | 1 |  |  |  | 790 |  |  |
| CCCNc1ccc2nc(NCCCCNC(=O)CC(C)C)c3nnc(C)n3c2c1 [Example 552, 3-methyl-N-[4-(1-methyl-8-propylamino-[1,2,4]triazolo[4,3-a]quinoxaline-4-ylamino)-butyl]-butyramide] | ≤ 50 | 21 |  |  | ≤ 200 | 157 |  |  |
| COc1cc2c(cc1C)nc(NCCCCNC(=O)CC(C)C)c1nnc(C)n12 [Example 151, N-[4-(8-methoxy-1,7-dimethyl-[1,2,4]triazolo[4,3-a]quinoxaline-4-ylamino)-butyl]-3-methyl-butyramide] |  | 52 |  |  |  | 380 |  |  |
| COc1ccc2c(c1)nc(NCCCCNC(=O)C(NC(=O)OC(C)(C)C)C(C)C)c1nnc(C)n12 (centres unmarked) [Example 310, {1-[4-(7-methoxy-1-methyl-[1,2,4]triazolo[4,3-a]quinoxaline-4-ylamino)-butylcarbamoyl]-2-methyl-propyl}-carbamic acid-tert-butylester] | ≤ 50 | 42 |  |  | ≤ 200 | 126 |  |  |
| COc1ccc2c(c1)nc(NCCCCC(=O)NCc1ccco1)c1nnc(C)n12 [Example 657] | ≤ 50 | 16 |  |  | ≤ 200 | 80 |  |  |
| COc1ccc2c(c1)nc(NCCCCNC(=O)CC(C)C)c1nnc(C(F)(F)F)n12 [Example 590, N-[4-(7-methoxy-1-trifluoromethyl-[1,2,4]triazolo[4,3-a]quinoxaline-4-ylamino)-butyl]-3-methyl-butyramide] | ≤ 50 | 29 |  |  |  | 490 |  |  |
| benzoic acid 1-methyl-4-[4-(3-methyl-butylamino)-butylamino]-[1,2,4]triazolo[4,3-a]quinoxaline-7-yl ester [Example 350] | ≤ 50 | 33 |  |  |  |  | ≤ 200 | 71 |
| COCCOc1ccc2c(c1)nc(NCCCCNC(=O)OC1CCCC1)c1nnc(C)n12 [Example 371, {4-[7-(2-methoxy-ethoxy)-1-methyl-[1,2,4]triazolo[4,3-a]quinoxaline-4-ylamino]-butyl}-carbamic acid cyclopentylester] | ≤ 10 | 7 |  |  | ≤ 200 | 119 |  |  |
| Cc1ccc2[nH]c(-c3ccc4c(c3)nc(NCCCCNC(=O)CC(C)C)c3nnc(C)n34)nc2c1 [Example 223, 3-methyl-N-{4-[1-methyl-7-(5-methyl-1H-benzoimidazole-2-yl)-[1,2,4]triazolo[4,3-a]quinoxaline-4-ylamino]-butyl}-butyramide] | ≤ 50 | 17 |  |  | ≤ 200 | 14 |  |  |
| COCCOc1ccc2c(c1)nc(NCCCCNC(=O)c1ccccc1F)c1nnc(C)n12 [Example 409, 2-fluoro-N-{4-[7-(2-methoxy-ethoxy)-1-methyl-[1,2,4]triazolo[4,3-a]quinoxaline-4-ylamino]-butyl}-benzamide] | ≤ 10 | 9 |  |  |  | 380 |  |  |
